Values after ≈ are worked out from the molar mass of the structure shown.
Legend:
Assay in all cases: Minimum inhibitory concentration (MIC90)
Type in all cases: cell-based
[1] = system: H. influenzae/β-lactamase positive; settings: Haemophilus influenzae, inhibits growth of 90% of the strains
From the text: (§1) The concentrations of the antibiotics of formula (I) in the compositions of the present invention will vary depending on the intended use of the compositions (e.g., treatment of existing infections or prevention of post-surgical infections), and the relative antimicrobial activity of the specific antibiotic selected. The antimicrobial activity of antibiotics is generally expressed as the minimum concentration required to inhibit the growth of a specified pathogen. This concentration is also referred to as the “minimum inhibitory concentration” or “MIC”. The term “MIC90” refers to the minimum concentration of antibiotic required to inhibit the growth of ninety percent (90%) of the strains of a species. The concentration of an antibiotic required to totally kill a specified bacteria is referred to as the “minimum bactericidal concentration” or “MBC”.

[2] = system: S. epidermidis/methicillin resistant; settings: Staphylococcus epidermidis, inhibits growth of 90% of the strains
From the text: as §1

[3] = system: S. pneumoniae/penicillin sensitive; settings: Streptococcus pneumoniae, inhibits growth of 90% of the strains
From the text: as §1

[4] = system: S. aureus/methicillin sensitive; settings: Staphylococcus aureus, inhibits growth of 90% of the strains
From the text: as §1

[5] = system: H influenzae/β-lactamase negative; settings: inhibits growth of 90% of the strains
From the text: as §1

[6] = system: S. epidermidis/methicillin sensitive; settings: Staphylococcus epidermidis, inhibits growth of 90% of the strains
From the text: as §1

[7] = system: S. aureus/methicillin resistant; settings: Staphylococcus aureus, inhibits growth of 90% of the strains
From the text: as §1

P. aeruginosa = settings: Pseudomonas aeruginosa, inhibits growth of 90% of the strains
From the text: as §1

[8] = system: S. aureus/quinolone resistant; settings: Staphylococcus aureus, inhibits growth of 90% of the strains
From the text: as §1

[9] = system: S. pneumoniae/penicillin resistant; settings: Streptococcus pneumoniae, inhibits growth of 90% of the strains
From the text: as §1

For `COc1c(N2C[C@@H]3CCCN[C@@H]3C2)c(F)cc2c(=O)c(C(=O)O)cn(C3CC3)c12` [Moxifloxacin], the MIC90 [1] was 0.06 mg/L (≈ 0.149 µM), the MIC90 [2] was 4 mg/L (≈ 9.96 µM) and the MIC90 [3] was 0.25 mg/L (≈ 0.623 µM). For the same compound, the MIC90 [4] was 0.13 mg/L (≈ 0.324 µM), the MIC90 [5] was 0.06 mg/L (≈ 0.149 µM) and the MIC90 [6] was 0.25 mg/L (≈ 0.623 µM). It also gave an MIC90 [7] of 4 mg/L (≈ 9.96 µM), an MIC90 (P. aeruginosa) of 8 mg/L (≈ 19.9 µM) and an MIC90 [8] of 4 mg/L (≈ 9.96 µM). For the same compound, the MIC90 [9] was 0.25 mg/L (≈ 0.623 µM).
